# Measured values from patent US20250066287A1, “PHASE CHANGE AROMATIC AZO COMPOUNDS, METHOD OF MANUFACTURE, AND USE AS HOMOGENOUS CATALYST” (priority 2023, published 2025).
# Values joined by “and” are separate entries in the source; they are usually repeats but may differ in a detail not shown here. Equal values may be shown once. Read-outs that look alike come from different tables or passages of the source.
# What was measured:
# [1] = Absorption coefficient of reactants, products and catalysts (UV-Vis); assay type: physicochemical
# Procedure: Ultraviolet-visible (UV-Vis) absorption spectra were obtained with a Cary 50 Bio UV-Vis spectrophotometer in a UV Quartz cuvette with a path length of 10 mm. Compounds were dissolved in solvents at a concentration of 0.0125 mg/ml unless otherwise specified. The UV-Vis absorption was first recorded in dark for 5 min, then samples were irradiated with a specified wavelength until no change in their absorbance was observed. Samples were irradiated with Thorlabs LEDs: M340L4 (340 nm, 2.22 μW/mm^2, 60 mW), M430L4 (430 nm, 35.3 μW/mm^2, 600 mW). […]
# [2] = Solvent screening for reversible solubility changes; details: 0.5 mg in 1 mL; irradiation of 340 nm and 430 nm
# Procedure: To determine solubility, 0.5 mg of compounds were added to 1 mL of common solvents (1-MeOH, 2-acetonitrile (MeCN), 3-acetone, 4-THF, 5-hexane, 6-EtOAc, 7-DMF, 8-DMSO, and 9-toluene, respectively). […] The samples with suspensions were then stirred overnight under 340 nm irradiation. […] These samples were then stirred for 4 hours under 430 nm to trigger the precipitation of the compounds.
# [3] = Thermal reversion kinetics measurements (Z-to-E); assay type: physicochemical; details: 1 in MeCN, 2 in MeOH; for τ1/2 (thermal half-life of Z isomer): Z-to-E thermal reversion at 298 K (room temperature); for ΔG^‡ / ΔH^‡ / ΔS‡: thermal isomerization of Z isomers at 298 K
# Procedure: Thermal reversion kinetics measurements. The thermal half-life of compounds 1 and 2 were determined by following a reported procedure (G. D. Han, et all., J. Mater. Chem. A 2016, 4, 16157-16165). A solution of compounds 1 or 2 (˜1.7×10^−5 M) were prepared in MeCN and MeOH, respectively, then irradiated at 340 nm to obtain a Z-rich solution at photostationary state (PSS), which was then heated at three different elevated temperatures (compound 1: 333 K, 338 K, 343 K; compound 2: 318 K, 323 K, 328 K) in dark.
# [4] = Light-induced precipitation of catalysts from pristine solvent; assay type: physicochemical; details: within 10 min of 430 nm irradiation; 1 in acetonitrile, 2 in methanol
# Procedure: FIG. 6 and FIG. 25 illustrate the efficiencies of 430 nm induced catalyst precipitation and recovery for compounds 1 and 2, which were obtained by weighing the filtered precipitates after irradiation. […] The full recovery of the catalysts is limited by the PSS ratios of compounds at 430 nm (82% for 1- E and 84% for 2-E).
# Light-induced precipitation of catalysts. To determine light-induced precipitation of catalysts, 44 mg of compound 1 and 34 mg of compound 2 were added to 2 mL of acetonitrile and methanol, respectively. The suspensions were irradiated at 340 nm overnight to obtain clear Z solutions. Then, the solutions were irradiated at 430 nm and monitored over 10 min.
# [5] = Kinetic tests of Henry reaction; details: for product yield: pre-activated Z, 24 hours; for rate constant kZ: pre-activated soluble Z
# [6] = Quantification of solubility of E and Z isomers in select solvents; details: for Isomer (% E): saturated solution after 340 nm irradiation
# Procedure: Quantification of solubility. […] The mixtures were sonicated for 5 min. The obtained suspensions were filtered with a PTFE filter to remove the excess solids. The solvents in clear filtrates were removed using a rotary evaporator and the solutes were dried under vacuum overnight.
# wherein [Z]max and [E]max are the maximum concentration of the Z-isomer and the E-isomer, respectively.
# [7] = Photoswitching between E and Z (UV-vis, photostationary state); assay type: physicochemical; details: dilute solution; compound 1 in acetonitrile, compound 2 in methanol
# Procedure: To find solvents in which the ratio between the maximum concentrations of Z and E isomers at the respective photostationary state (PSS) (i.e., r=[Z]max/[E]max) is the greatest, a solvent screening test for each compound was performed (FIGS. 21-24).
# Ultraviolet-visible (UV-Vis) absorption spectra were obtained with a Cary 50 Bio UV-Vis spectrophotometer in a UV Quartz cuvette with a path length of 10 mm. Compounds were dissolved in solvents at a concentration of 0.0125 mg/ml unless otherwise specified. The UV-Vis absorption was first recorded in dark for 5 min, then samples were irradiated with a specified wavelength until no change in their absorbance was observed. Samples were irradiated with Thorlabs LEDs: M340L4 (340 nm, 2.22 μW/mm^2, 60 mW), M430L4 (430 nm, 35.3 μW/mm^2, 600 mW).
# [8] = Cycling tests of Michael addition reaction; details: Michael addition in acetonitrile; after the subsequent two reactions with recovered catalyst, 10 mol % loading
# [9] = Michael addition in acetonitrile; in 10 hours
# Procedure: For compound 1: To a solution of trans-β-nitrostyrene (11.1 mg, 7.5 μmol) and acetylacetone (7.6 mg, 7.5 μmol) in MeCN (0.25 mL) was added either insoluble E isomer or pre-activated Z isomer of compound 1 (5.4 mg, 0.75 μmol). Three identical samples were prepared. 0.2 mL of the solution was taken to check the product yield via ^1H NMR at each time point.
# [10] = Cycling tests of Henry reaction; details: acetonitrile
# [11] = pristine azobenzene; cited from earlier work
# [12] = EtOAc, Z-rich after 340 nm irradiation overnight
# [13] = MeOH, Z-rich after 340 nm irradiation overnight
# [14] = MeCN, Z-rich after 340 nm irradiation overnight
# [15] = Toluene, Z-rich after 340 nm irradiation overnight
# [16] = Henry reaction, 1 in acetonitrile, 2 in methanol
compound,measurement,setting,value
"CC[N+](=O)[O-] [Nitroethane, nitroethane]",ε340 nm,[1]; MeCN,0.3 M⁻¹ cm⁻¹
same,ε340 nm,[1]; MeOH,1.3 M⁻¹ cm⁻¹
CN(CCCNC(=O)c1ccc(-c2ccc(C(=O)NCCCN(C)CCc3ccc(N=Nc4ccccc4)cc3)cc2)cc1)CCc1ccc(N=Nc2ccccc2)cc1 [Compound 2],ideal solvent candidates for reversible solubility changes,[2],MeOH and EtOAc
same,τ1/2 (thermal half-life of Z isomer),[3],84 h
same,ΔG^‡,[3],25.14 kcal/mol
same,ΔH^‡,[3],18 kcal/mol
same,ΔS‡,[3],−99.7 J mol^−1K^−1
same,% Z drop in the suspension,[4],75%
same,rate constant kE-UV,[5],1.16×10 ^−5 s^−1
same,r=[Z]max/[E]max,[6]; EtOAc,6.0
same,Solubility,"[6]; EtOAc, E isomer (100% E)",2.4 g/L and 3.0 mM
same,Solubility,[6]; [12],14 g/L and 18 mM
same,Isomer (% E),[6]; EtOAc,14 % E
same,r=[Z]max/[E]max,[6]; MeOH (methanol),8.8
same,Solubility,"[6]; MeOH, E isomer (100% E)",1.9 g/L and 2.4 mM
same,Solubility,[6]; [13],17 g/L and 21 mM
same,Isomer (% E),[6]; MeOH,16 % E
same,% E after irradiation at 430 nm (PSS),[7],84 % E
same,% Z after irradiation at 340 nm (PSS),[7],84 % Z
CN(CCCNC(=O)CCCC#CC#CCCCC(=O)NCCCN(C)CCc1ccc(N=Nc2ccccc2)cc1)CCc1ccc(N=Nc2ccccc2)cc1 [Compound 4],ideal solvent candidates for reversible solubility changes,[2],no solvent is ideal
same,r=[Z]max/[E]max,[6]; EtOAc,9.4
same,Solubility,"[6]; EtOAc, E isomer (100% E)",2.6 g/L and 3.3 mM
same,Solubility,[6]; [12],24 g/L and 31 mM
same,Isomer (% E),[6]; EtOAc,23 % E
same,r=[Z]max/[E]max,[6]; MeCN (acetonitrile),10.0
same,Solubility,"[6]; MeCN, E isomer (100% E)",3.3 g/L and 4.3 mM
same,Solubility,[6]; [14],33 g/L and 43 mM
same,Isomer (% E),[6]; MeCN,9 % E
same,r=[Z]max/[E]max,[6]; Toluene,13.9
same,Solubility,"[6]; Toluene, E isomer (100% E)",2.6 g/L and 3.3 mM
same,Solubility,[6]; [15],36 g/L and 46 mM
same,Isomer (% E),[6]; Toluene,55 % E
CN(CCCNC(=O)c1ccc2cc(C(=O)NCCCN(C)CCc3ccc(N=Nc4ccccc4)cc3)ccc2c1)CCc1ccc(N=Nc2ccccc2)cc1 [Compound 3],ideal solvent candidates for reversible solubility changes,[2],MeOH and acetone
same,r=[Z]max/[E]max,[6]; Acetone,5.7
same,Solubility,"[6]; Acetone, E isomer (100% E)",3.8 g/L and 4.9 mM
same,Isomer (% E),[6]; Acetone,14 % E
same,r=[Z]max/[E]max,[6]; MeOH (methanol),4.0
same,Solubility,"[6]; MeOH, E isomer (100% E)",3.9 g/L and 5.0 mM
same,Solubility,[6]; [13],16 g/L and 20 mM
same,Isomer (% E),[6]; MeOH,27 % E
"O=Cc1ccc([N+](=O)[O-])cc1 [Nitrobenzaldehyde, 4-nitrobenzaldehyde]",ε340 nm,[1]; MeCN,323.3 M⁻¹ cm⁻¹
same,ε340 nm,"[1]; MeCN, listed as 4-nitrobenzaldehyde",323 M⁻¹ cm⁻¹
same,ε340 nm,[1]; MeOH,312.5 M⁻¹ cm⁻¹
CN(CCCNC(=O)c1ccc(C(=O)NCCCN(C)CCc2ccc(/N=N\c3ccccc3)cc2)cc1)CCc1ccc(/N=N\c2ccccc2)cc1 [Compound 1-Z],τ1/2 (thermal half-life of Z isomer),[3],199 h
same,product yield,[5]; [16],about 70%
same,rate constant kZ,[5]; [16],1.37e-05 s⁻¹
same,ε340 nm,[1]; MeCN,6780.1 M⁻¹ cm⁻¹
same,ε430 nm,[1]; MeCN,2857.4 M⁻¹ cm⁻¹
CN(CCCNC(=O)c1ccc(C(=O)NCCCN(C)CCc2ccc(N=Nc3ccccc3)cc2)cc1)CCc1ccc(N=Nc2ccccc2)cc1 [Compound 1],ideal solvent candidates for reversible solubility changes,[2],MeCN and toluene
same,product yield,[8],82%
same,product yield of Z-rich catalyst compared to its E counterpart,[9],2.4 fold
same,τ1/2 (thermal half-life of Z isomer),[3],199 h
same,ΔG^‡,[3],25.67 kcal/mol
same,ΔH^‡,[3],23.97 kcal/mol
same,ΔS‡,[3],−23.8 J mol^−1K^−1
same,% Z drop in the suspension,[4],75%
same,yield of product,[10]; 1st Henry reaction (16 hours),56%
same,yield of product,[10]; 2nd Henry reaction (16 hours),57%
same,yield of product,[10]; third Henry reaction (24 hours),70%
same,% Z by in-situ UV-induced E→Z isomerization in the reaction medium,"[5]; Henry reaction mixture in acetonitrile, after 24-hour 340 nm irradiation",48 % Z
same,rate constant kE-UV,"[5]; Henry reaction, in-situ UV (340 nm) activated catalyst, 1 in acetonitrile, 2 in methanol",4.24e-06 s⁻¹
same,r=[Z]max/[E]max,[6]; MeCN (acetonitrile),10.4 and 10.3
same,Solubility,"[6]; MeCN, E isomer (100% E)",2.1 g/L and 2.9 mM
same,Solubility,[6]; [14],22 g/L and 30 mM
same,Isomer (% E),[6]; MeCN,12 % E
same,r=[Z]max/[E]max,[6]; Toluene,2.8
same,Solubility,"[6]; Toluene, E isomer (100% E)",5.4 g/L and 7.5 mM
same,Solubility,[6]; [15],15 g/L and 21 mM
same,Isomer (% E),[6]; Toluene,17 % E
same,% E after irradiation at 430 nm (PSS),[7],82 % E
same,% Z after irradiation at 340 nm (PSS),[7],~88 % Z
"CC(=O)CC(C)=O [Acetylacetone, acetylacetone]",ε340 nm,[1]; MeCN,2.4 M⁻¹ cm⁻¹
same,ε340 nm,[1]; MeOH,31.1 M⁻¹ cm⁻¹
CN(CCCNC(=O)c1ccc(-c2ccc(C(=O)NCCCN(C)CCc3ccc(/N=N\c4ccccc4)cc3)cc2)cc1)CCc1ccc(/N=N\c2ccccc2)cc1 [Compound 2-Z],τ1/2 (thermal half-life of Z isomer),[3],84 h
same,product yield,[5]; [16],85%
same,rate constant kZ,[5]; [16],2.6e-05 s⁻¹
same,ε340 nm,[1]; MeOH,2937.1 M⁻¹ cm⁻¹
same,ε430 nm,[1]; MeOH,3632.2 M⁻¹ cm⁻¹
CN(CCCNC(=O)c1ccc(C(=O)NCCCN(C)CCc2ccc(/N=N/c3ccccc3)cc2)cc1)CCc1ccc(/N=N/c2ccccc2)cc1 [Compound 1-E],ε340 nm,[1]; MeCN,24004 M⁻¹ cm⁻¹ and 24004.3 M⁻¹ cm⁻¹
same,ε430 nm,[1]; MeCN,2336.5 M⁻¹ cm⁻¹
same,% E after irradiation at 430 nm (PSS),[7],82 % E
"O=[N+]([O-])/C=C/c1ccccc1 [Nitrostyrene, trans-β-nitrostyrene]",ε340 nm,[1]; MeCN,11327.3 M⁻¹ cm⁻¹
same,ε340 nm,"[1]; MeCN, listed as trans-β-nitrostyrene",11327 M⁻¹ cm⁻¹
same,ε340 nm,[1]; MeOH,15390.7 M⁻¹ cm⁻¹
CN(CCCNC(=O)c1ccc(-c2ccc(C(=O)NCCCN(C)CCc3ccc(/N=N/c4ccccc4)cc3)cc2)cc1)CCc1ccc(/N=N/c2ccccc2)cc1 [Compound 2-E],ε340 nm,[1]; MeOH,25623 M⁻¹ cm⁻¹ and 25623.3 M⁻¹ cm⁻¹
same,ε430 nm,[1]; MeOH,2375.3 M⁻¹ cm⁻¹
same,% E after irradiation at 430 nm (PSS),[7],84 % E
c1ccc(N=Nc2ccccc2)cc1 [azobenzene],% E at 430 nm (photoswitching property),[11],83 % E
